{"source": "patent US9012655B2", "about": "“Antimicrobial/adjuvant compounds and methods” (Denouamed, Inc., priority 2011, dated 2015)", "experiment_in_all_cases": "MIC panel of challenge pathogens (CLSI)", "format_in_all_cases": "cell-based", "key": {"[1]": {"test_system": "Staphylococcus aureus AUR59 7005", "conditions": "Staphylococcus aureus AUR59 7005", "protocol": "(§1) The inocula for each bacterial strain were prepared by picking 5-10 distinct colonies from the culture plates and suspending them in the appropriate broth as per Clinical and Laboratory Standards Institute (CLSI) guidelines M07-A8, M24-A or M11-A7 as appropriate. The inoculum was resuspended by vigorous shaking on a vortex mixer for 15 s. The turbidity was then adjusted to McFarland standard 0.5 ([…]). The inoculum was further diluted in the appropriate media for MIC tests to give a final inoculum in each well of 2-8×10^5 CFU/ml. MICs were tested in the appropriate broth in accordance with the appropriate CLSI guidelines.\n(§2) A stock solution of each compound was prepared at a concentration of 1.28 g/L in DMSO. The stock was further diluted in the appropriate media to give a top starting concentration of 128 mg/L in the assay. 100 μL of the appropriate media, as per CLSI guidelines, was dispensed into each well in columns 2-12. 200 μL of the each compound solution (at 256 mg/L) was dispensed into each well in column 1. 100 μL aliquots were pipetted from column 1 wells and dispensed into column 2 with a multichannel pipette (±2% coefficient of variation) thus diluting two-fold. 100 μL samples were then pipetted from column 2 wells and dispensed into column 3. The process was repeated through to column 10. The final 100 μL of diluted drug from column 10 was then discarded. Row 11 acted as a positive control (no compound, but organisms added), Row 12 acted as a negative control (no compound, and no organisms added).\n(§3) 100 μL of the appropriate inoculum suspension in the appropriate media, as per CLSI guidelines, was added to the appropriate wells. […] All plates were incubated in the dark under aerobic or anaerobic conditions at 30-37° C. for 24-48 hours, according to the appropriate CLSI guideline. Plates were read visually 24-48 hours post inoculation. Endpoints of 100% inhibition were determined (CLSI interpretation endpoints following visual examination).\n(§4) MIC50, MIC80, and 100% inhibition results are reported below in μg/mL in the following Tables, indicating each compound tested against a given species and strain: […]"}, "[2]": {"test_system": "Staphylococcus aureus AUR60 7005", "conditions": "Staphylococcus aureus AUR60 7005", "protocol": "as §1, §2, §3, §4"}, "[3]": {"test_system": "Staphylococcus aureus NRS1 (ATCC700699)", "conditions": "Staphylococcus aureus NRS1 (ATCC700699)", "protocol": "as §1, §2, §3, §4"}, "[4]": {"test_system": "Staphylococcus aureus NRS384", "conditions": "Staphylococcus aureus NRS384", "protocol": "as §1, §2, §3, §4"}, "[5]": {"test_system": "Enterococcus faecalis ATCC51299", "conditions": "Enterococcus faecalis ATCC51299", "protocol": "as §1, §2, §3, §4"}, "[6]": {"test_system": "Staphylococcus aureus AUR58 7005", "conditions": "Staphylococcus aureus AUR58 7005", "protocol": "as §1, §2, §3, §4"}, "[7]": {"test_system": "Staphylococcus aureus EUP MRSA002", "conditions": "Staphylococcus aureus EUP MRSA002", "protocol": "as §1, §2, §3, §4"}, "[8]": {"test_system": "Staphylococcus aureus ATCC43300", "conditions": "Staphylococcus aureus ATCC43300", "protocol": "as §1, §2, §3, §4"}, "Bacillus cereus NCTC6349": {"test_system": "Bacillus cereus NCTC6349", "conditions": "Bacillus cereus NCTC6349", "protocol": "as §1, §2, §3, §4"}, "[9]": {"test_system": "Staphylococcus epidermidis NRS122", "conditions": "Staphylococcus epidermidis NRS122", "protocol": "as §1, §2, §3, §4"}, "[10]": {"test_system": "Staphylococcus aureus NRS382", "conditions": "Staphylococcus aureus NRS382", "protocol": "as §1, §2, §3, §4"}, "[11]": {"test_system": "Staphylococcus aureus AUR131 007035", "conditions": "Staphylococcus aureus AUR131 007035", "protocol": "as §1, §2, §3, §4"}, "[12]": {"test_system": "Staphylococcus aureus NRS383", "conditions": "Staphylococcus aureus NRS383", "protocol": "as §1, §2, §3, §4"}, "[13]": {"test_system": "Enterococcus faecalis ATCC29212", "conditions": "Enterococcus faecalis ATCC29212", "protocol": "as §1, §2, §3, §4"}, "[14]": {"test_system": "Enterococcus faecium ATCC700221", "conditions": "Enterococcus faecium ATCC700221", "protocol": "as §1, §2, §3, §4"}, "[15]": {"test_system": "Staphylococcus epidermidis NRS7", "conditions": "Staphylococcus epidermidis NRS7", "protocol": "as §1, §2, §3, §4"}, "[16]": {"test_system": "Staphylococcus aureus EUP SAU040", "conditions": "Staphylococcus aureus EUP SAU040", "protocol": "as §1, §2, §3, §4"}, "[17]": {"test_system": "Staphylococcus aureus NRS2 (ATCC700698)", "conditions": "Staphylococcus aureus NRS2 (ATCC700698)", "protocol": "as §1, §2, §3, §4"}, "[18]": {"test_system": "Staphylococcus aureus EUP MRSA004", "conditions": "Staphylococcus aureus EUP MRSA004", "protocol": "as §1, §2, §3, §4"}}, "data": [{"smiles": "Cc1ccc(-c2cc(-c3nn[nH]n3)cc(-c3ccccc3-c3ccccc3)c2)c2ccccc12", "note": "[DNM0474]", "values": [{"measurement": "100% inhibition", "setting": "[1]", "value": 0.5, "unit": "µg/mL"}, {"measurement": "MIC50 (50%)", "setting": "[1]", "value": 0.5, "unit": "mg/L"}, {"measurement": "MIC80 (80%)", "setting": "[1]", "value": 0.5, "unit": "mg/L"}, {"measurement": "100% inhibition", "setting": "[2]", "value": 0.5, "unit": "µg/mL"}, {"measurement": "MIC50 (50%)", "setting": "[2]", "value": 0.5, "unit": "mg/L"}, {"measurement": "MIC80 (80%)", "setting": "[2]", "value": 0.5, "unit": "mg/L"}, {"measurement": "100% inhibition", "setting": "[3]", "value": 0.5, "unit": "µg/mL"}, {"measurement": "MIC50 (50%)", "setting": "[3]", "value": 0.25, "unit": "mg/L"}, {"measurement": "MIC80 (80%)", "setting": "[3]", "value": 0.5, "unit": "mg/L"}, {"measurement": "100% inhibition", "setting": "[4]", "value": 0.5, "unit": "µg/mL"}, {"measurement": "MIC50 (50%)", "setting": "[4]", "value": 0.5, "unit": "mg/L"}, {"measurement": "MIC80 (80%)", "setting": "[4]", "value": 0.5, "unit": "mg/L"}, {"measurement": "100% inhibition", "setting": "[5]", "value": 1, "unit": "µg/mL"}, {"measurement": "MIC50 (50%)", "setting": "[5]", "value": 1, "unit": "mg/L"}, {"measurement": "MIC80 (80%)", "setting": "[5]", "value": 1, "unit": "mg/L"}, {"measurement": "100% inhibition", "setting": "[6]", "value": 1, "unit": "µg/mL"}, {"measurement": "MIC50 (50%)", "setting": "[6]", "value": 0.5, "unit": "mg/L"}, {"measurement": "MIC80 (80%)", "setting": "[6]", "value": 1, "unit": "mg/L"}, {"measurement": "100% inhibition", "setting": "[7]", "value": 1, "unit": "µg/mL"}, {"measurement": "MIC50 (50%)", "setting": "[7]", "value": 1, "unit": "mg/L"}, {"measurement": "MIC80 (80%)", "setting": "[7]", "value": 1, "unit": "mg/L"}, {"measurement": "100% inhibition", "setting": "[8]", "value": 0.5, "unit": "µg/mL"}, {"measurement": "MIC50 (50%)", "setting": "[8]", "value": 0.5, "unit": "mg/L"}, {"measurement": "MIC80 (80%)", "setting": "[8]", "value": 0.5, "unit": "mg/L"}, {"measurement": "100% inhibition", "setting": "Bacillus cereus NCTC6349", "value": "≦0.25 μg/mL"}, {"measurement": "MIC50 (50%)", "setting": "Bacillus cereus NCTC6349", "value": "≦0.25 μg/mL"}, {"measurement": "MIC80 (80%)", "setting": "Bacillus cereus NCTC6349", "value": "≦0.25 μg/mL"}, {"measurement": "100% inhibition", "setting": "[9]", "value": 16, "unit": "µg/mL"}, {"measurement": "MIC50 (50%)", "setting": "[9]", "value": 4, "unit": "mg/L"}, {"measurement": "MIC80 (80%)", "setting": "[9]", "value": 8, "unit": "mg/L"}, {"measurement": "100% inhibition", "setting": "[10]", "value": 0.5, "unit": "µg/mL"}, {"measurement": "MIC50 (50%)", "setting": "[10]", "value": 0.5, "unit": "mg/L"}, {"measurement": "MIC80 (80%)", "setting": "[10]", "value": 0.5, "unit": "mg/L"}, {"measurement": "100% inhibition", "setting": "[11]", "value": 0.5, "unit": "µg/mL"}, {"measurement": "MIC50 (50%)", "setting": "[11]", "value": 0.5, "unit": "mg/L"}, {"measurement": "MIC80 (80%)", "setting": "[11]", "value": 0.5, "unit": "mg/L"}, {"measurement": "100% inhibition", "setting": "[12]", "value": 0.5, "unit": "µg/mL"}, {"measurement": "MIC50 (50%)", "setting": "[12]", "value": 0.5, "unit": "mg/L"}, {"measurement": "MIC80 (80%)", "setting": "[12]", "value": 0.5, "unit": "mg/L"}, {"measurement": "100% inhibition", "setting": "[13]", "value": 1, "unit": "µg/mL"}, {"measurement": "MIC50 (50%)", "setting": "[13]", "value": 1, "unit": "mg/L"}, {"measurement": "MIC80 (80%)", "setting": "[13]", "value": 1, "unit": "mg/L"}, {"measurement": "100% inhibition", "setting": "[14]", "value": 1, "unit": "µg/mL"}, {"measurement": "MIC50 (50%)", "setting": "[14]", "value": 1, "unit": "mg/L"}, {"measurement": "MIC80 (80%)", "setting": "[14]", "value": 1, "unit": "mg/L"}, {"measurement": "100% inhibition", "setting": "[15]", "value": 1, "unit": "µg/mL"}, {"measurement": "MIC50 (50%)", "setting": "[15]", "value": 0.5, "unit": "mg/L"}, {"measurement": "MIC80 (80%)", "setting": "[15]", "value": 1, "unit": "mg/L"}, {"measurement": "100% inhibition", "setting": "[16]", "value": 0.25, "unit": "µg/mL"}, {"measurement": "MIC50 (50%)", "setting": "[16]", "value": 0.5, "unit": "mg/L"}, {"measurement": "MIC80 (80%)", "setting": "[16]", "value": 0.5, "unit": "mg/L"}, {"measurement": "100% inhibition", "setting": "[17]", "value": 0.5, "unit": "µg/mL"}, {"measurement": "MIC50 (50%)", "setting": "[17]", "value": 0.5, "unit": "mg/L"}, {"measurement": "MIC80 (80%)", "setting": "[17]", "value": 0.5, "unit": "mg/L"}, {"measurement": "100% inhibition", "setting": "[18]", "value": 0.5, "unit": "µg/mL"}, {"measurement": "MIC50 (50%)", "setting": "[18]", "value": 0.5, "unit": "mg/L"}, {"measurement": "MIC80 (80%)", "setting": "[18]", "value": 0.5, "unit": "mg/L"}]}]}
